The source of these data is paper PMC8284461, “Piperidine-4-Carboxamides Target DNA Gyrase in Mycobacterium abscessus” (Antimicrobial Agents and Chemotherapy, 2021).

Molecules are shown by their SMILES. Values after ≈ are worked out from the molar mass of the structure shown.

The nature of data set [1]: Plasma stability. The class given is in vitro ADME, New Zealand white rabbits. The note with it: rabbit plasma, 37°C, 1 μg/ml. As to the method:
(§1) The plasma stability assays were carried out using plasma from female CD-1 mice, New Zealand white rabbits, rhesus monkeys, and humans containing K2EDTA anticoagulant (Bioreclamation). Stability samples consisted of 5 μl of stock compound solution in 50:50 ACN/water and 95 μl of plasma to a final concentration of 1 μg/ml. The samples were incubated at 37°C with shaking; 10 μl of plasma was removed at each time point and combined with 100 μl of ACN/methanol 50:50 protein precipitation solvent containing internal standard (10 ng/ml verapamil). Chromatography for metabolite identification was performed the same as specified for pharmacokinetic sample analysis. Full scan total ion chromatograms (TIC) of plasma extracts were acquired using a Q Exactive high-resolution mass spectrometer (QE-HRMS) at 70,000 mass resolution. Thermo Fisher Compound Discoverer software was used to assist in identifying the 844-TFM metabolites from the QE-HRMS TIC mass spectrum. Figure S2 in the supplemental material illustrates the extracted ion chromatograms (XIC) of 844-TFM and the metabolites using 5 ppm mass accuracy before and after 12 h of incubation in mouse plasma.

The test system of data set [2] is M. abscessus subsp. abscessus Bamboo 844^r-2 (GyrA D91N). As to the kind of experiment: MIC, resistant mutant. The class given is cell-based, Mycobacterium abscessus. The conditions noted are these: Mycobacteroides abscessus.
The nature of data set [3]: Plasma stability. The class given is in vitro ADME, humans. The note with it: human plasma, 37°C, 1 μg/ml. The procedure: as §1
In data set [4] the test system is M. abscessus subsp. abscessus ATCC 19977 MXF^r-1 (GyrA D96Y). As to the kind of experiment: MIC, resistant mutant. The conditions noted are these: Mycobacteroides abscessus, ATCC19977. Type of data set: cell-based, Mycobacterium abscessus.
Data set [5] in a line: Kinetic solubility. Type of data set: physicochemical. The procedure: (§2) Kinetic solubility, parallel artificial membrane permeability assay (PAMPA) permeability, and stability in the mouse liver microsome assay were performed by BioDuro (Shanghai, China) according to standard protocols.
In data set [6] the test system is M. abscessus subsp. abscessus ATCC 19977. As to the kind of experiment: Time-concentration kill assay, planktonic cultures. Type of data set: cell-based, Mycobacterium abscessus. The conditions noted are these: 1×, 4×, 8× MIC; CFU after 2 and 3 days.
Protocol: At 0, 2, and 3 days, tubes were vortexed, and 20 μl of the cultures was transferred to round-bottom 96-well plates containing 180 μl of phosphate-buffered saline (PBS) (10010023; Thermo Fisher, USA) with 0.025% Tween 80 (PBS/Tween 80) for 10-fold serial dilution. To prevent compound carryover effects, we plated out serially diluted samples onto 7H10 agar supplemented with 0.4% activated charcoal (C9154; Sigma-Aldrich, USA) for all time points as described ([48]). CFU were enumerated after 4 days of incubation at 37°C.
Data set [7] deals with M. abscessus complex strains. Description: MIC across reference strains and clinical isolates. The class given is cell-based, Mycobacterium abscessus. As to the method: MIC was determined using the broth microdilution method in 96-well plates as described previously ([47]). Briefly, a 10-point 2-fold serial dilution of compounds was performed in 96-well plates (Costar 3370; Corning, USA) starting at twice the desired highest concentration. […] One hundred microliters of the bacterial suspension was seeded onto the 96-well plates containing 100 μl of the serially diluted compounds to give a final volume of 200 μl in each well with the final OD600 of 0.005. The plates were sealed with parafilm, placed onto wet paper towels in a lock-lock box and incubated for 3 days at 37°C with orbital shaking at 90 rpm. […] Absorbance values at day 3 were subtracted from the day 0 readout. Percent growth inhibition was calculated by dividing the absolute absorbance value of treated cells with untreated control and multiplying by 100. CLR was included in all MIC experiments as a positive control to monitor assay reproducibility. MIC was defined as 90% of growth inhibition relative to untreated controls.

The nature of data set [8]: Parallel artificial membrane permeability assay (PAMPA). Type of data set: in vitro ADME. As to the method: as §2
For orientation: PAMPA measures passive passage across an artificial lipid membrane.

Data set [9] concerns the target GyrA D91N mutant recombinant M. abscessus DNA gyrase (Mycobacteroides abscessus, UniProt B1ME45+B1ME58, D91N). The class given is biochemical, Mycobacterium abscessus. The note with it: GyrA D91N mutant DNA gyrase, up to 50 μM.
The nature of data set [10]: Mouse liver microsome stability. Type of data set: in vitro ADME. As to the method: as §2

GyrA D91N mutant recombinant M. abscessus DNA gyrase, sequence (B1ME58 2-839, stated change not applied): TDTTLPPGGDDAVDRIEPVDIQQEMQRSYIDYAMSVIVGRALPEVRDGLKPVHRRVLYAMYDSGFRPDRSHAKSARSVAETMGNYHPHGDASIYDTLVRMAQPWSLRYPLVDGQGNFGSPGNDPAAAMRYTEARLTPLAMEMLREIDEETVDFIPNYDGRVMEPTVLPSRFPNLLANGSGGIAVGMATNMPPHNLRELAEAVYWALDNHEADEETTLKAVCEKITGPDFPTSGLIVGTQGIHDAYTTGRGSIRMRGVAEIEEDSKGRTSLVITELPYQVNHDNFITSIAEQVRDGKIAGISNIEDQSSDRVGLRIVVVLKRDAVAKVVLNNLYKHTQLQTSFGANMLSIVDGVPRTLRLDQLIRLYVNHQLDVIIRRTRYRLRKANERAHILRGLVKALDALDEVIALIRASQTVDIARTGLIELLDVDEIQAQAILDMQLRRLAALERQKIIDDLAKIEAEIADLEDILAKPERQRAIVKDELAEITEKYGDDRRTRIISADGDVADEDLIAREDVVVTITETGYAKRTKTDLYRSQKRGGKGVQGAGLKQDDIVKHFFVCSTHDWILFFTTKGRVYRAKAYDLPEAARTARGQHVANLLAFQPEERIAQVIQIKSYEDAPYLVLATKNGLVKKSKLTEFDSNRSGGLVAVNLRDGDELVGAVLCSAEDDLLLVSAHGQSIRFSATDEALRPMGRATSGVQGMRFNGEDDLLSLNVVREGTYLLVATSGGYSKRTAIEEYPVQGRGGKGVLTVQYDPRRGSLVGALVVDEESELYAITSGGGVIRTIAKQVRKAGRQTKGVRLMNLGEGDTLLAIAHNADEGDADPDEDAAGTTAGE
GyrA D91N mutant recombinant M. abscessus DNA gyrase, sequence (B1ME45 2-675, stated change not applied): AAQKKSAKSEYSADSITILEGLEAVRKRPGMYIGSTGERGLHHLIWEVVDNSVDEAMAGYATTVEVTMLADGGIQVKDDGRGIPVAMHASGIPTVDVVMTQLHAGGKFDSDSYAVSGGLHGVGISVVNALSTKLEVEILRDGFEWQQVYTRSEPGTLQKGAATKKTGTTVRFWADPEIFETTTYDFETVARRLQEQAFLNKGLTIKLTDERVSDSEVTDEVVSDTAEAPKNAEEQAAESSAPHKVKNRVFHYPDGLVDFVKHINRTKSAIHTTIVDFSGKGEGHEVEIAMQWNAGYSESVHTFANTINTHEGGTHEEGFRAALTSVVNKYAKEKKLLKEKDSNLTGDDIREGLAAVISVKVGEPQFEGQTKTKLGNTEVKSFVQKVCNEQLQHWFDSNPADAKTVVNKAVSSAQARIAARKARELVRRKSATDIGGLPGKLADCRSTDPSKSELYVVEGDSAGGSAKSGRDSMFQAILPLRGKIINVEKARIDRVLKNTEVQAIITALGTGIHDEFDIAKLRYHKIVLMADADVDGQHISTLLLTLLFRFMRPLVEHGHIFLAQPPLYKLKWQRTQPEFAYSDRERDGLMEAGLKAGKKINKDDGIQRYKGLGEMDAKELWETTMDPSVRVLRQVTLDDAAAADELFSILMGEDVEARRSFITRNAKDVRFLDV

A word on the solubility: it is the dissolved amount per volume that the medium holds. Lower therefore signals little dissolved substance. In general, CLint scaled refers to a measure of how fast metabolising enzymes remove a compound, apart from limits set by blood flow. Broadly, the half-life is the time needed for the level to fall by half in the phase considered. Low readings indicate fast loss, high ones slow loss. On to `COc1ccc2nccc(NC(=O)C3CCN(CCc4ccc(C(F)(F)F)cc4)CC3)c2n1` [844-TFM], for which the “remaining after 24 h” value in [1] and in [3] was “approximately 80%” in each case. Also, the MIC was > 100 µM in data set [2]; 6 µM (≈ 2.75 µg/mL) in data set [4]; 1.5 to 6 µM (≈ 0.688 to 2.75 µg/mL) in data set [7] (Mycobacteroides abscessus, reference strains and clinical isolates of Table 1, read-out: MICs ranging across the M. abscessus complex strains). The solubility in data set [5] (pH 7.4) was 390 µM (≈ 179 µg/mL); in [5] (simulated gastric fluid, pH 2) it was 446 µM (≈ 205 µg/mL). In addition, the “bactericidal activity in planktonic cultures” value in [6] is given as “bactericidal”. The “fold more potent than 844” value in data set [7] (whole-cell potency relative to 844) was ~8 fold. Further, the Papp in data set [8] (PAMPA, pH 7.4, read-out: PAMPA Mean Pe) worked out at 2 ×10⁻⁶ cm/s. Also, the “PAMPA logPe” value is reported as −5.7 in data set [8] (pH 7.4); −5.7 cm/s in [8] (−5.0 cm/s considered border between high and low permeability). Also, in data set [9], the “effect on supercoiling activity” value was “No inhibition”. Besides, the CLint scaled in data set [10] (liver microsomes, mouse hepatic microsomes, scaled) is 1050 mL/min/kg. Further, the microsomal CLint in data set [10] (liver microsomes, mouse hepatic microsomes, read-out: In vitro CLint) is 267 µL/min/mg. For the same molecule, the t1/2 in data set [10] (mouse hepatic microsomes, in vitro) stood at 5.2 min. This molecule also yielded a CLhepatic in data set [10] (mouse hepatic microsomes, scaled) of 82.9 mL/min/kg. The same molecule returned a half-life in data set [10] (mouse, liver microsomes, mouse hepatic microsomes, in vitro) of 5 min. The predicted extraction ratio in [10] (mouse, clearance vs hepatic blood flow of 90 ml/min/kg) is ~1.
